Series [1] concerns HMEX1906 primary melanoma model (HMEX1906-R5). Put plainly: Efficacy in HMEX1906-R5 primary melanoma model resistant to Compound of Formula (I). The conditions noted are these: PO; Compound C 250 mg/kg qd×21; Compound of Formula (I) 5 mg/kg bid×21. It counts as in vivo. On the procedure: Objective: To evaluate the efficacy of the combination of the Compound of Formula (I) and the CDK 4 inhibitor Compound C in the HMEX1906 primary melanoma model that is grown in the presence of and is resistant to 5 mg/kg the Compound of Formula (I) (HMEX1906-R5)
Drug formulation: Compound C is formulated in 0.5% MC/0.5% Tween80 and the Compound of Formula (I) is formulated in 20% PEG300/3% ETPGS.
Tumors are chopped/minced into cell line like suspension (tumors homogenized). 7 mL of matrigel added and 1.5 mL of HBSS. Suspension warmed in palm until Matrigel is thick and implanted with a 18G needle s.c right flank of female nude mice.
The mice were assigned to the following groups at 18 days post implant with an average tumor volume of 266 mm^3 and average body weight of 25 grams.
Groups: 10 mice/group, route PO, dose volume 0.2 mL
Group 1: Vehicle, 0 mg/kg bid×14
Group 2: Compound C, 250 mg/kg qd×21
Group 3: Compound of Formula (I), 5 mg/kg bid×21
Group 4: Compound C 250 mg/kg qd×21+Compound of Formula (I) 5 mg/kg bid×21

Series [2] can be described thus: Clinical dose finding and tolerability (RP2D/MTD) in patients. It counts as in vivo. The conditions noted are these: for MTD: QD. An excerpt:
The selection of the starting dose follows the ICH S9 guidelines for choosing a starting a dose for a first-in-human trial conducted in patients with cancer, and is shown in Table 6-2.
Table 3 describes the starting doses and the provisional dose levels of study treatments for the combinations that may be evaluated during this trial. Additional dose levels not currently specified may be enrolled and additional patients may be enrolled at a dose level already tested if such changes are deemed necessary to provide optimal safety and tolerability, pharmacokinetic, and pharmacodynamic data.

In a further series the test system is COLO 741. Put plainly: xCELLigence real-time impedance growth assay. It counts as cell-based. To be noted: COLO 741, absence of FGF2; Formula (I) 500 nM, Compound H 1 uM. On the procedure:
(§1) Shown is the growth in real time of the (Top A) COLO 741 and (Bottom B) SK-MEL-5 cell lines as measured using the xCELLigence impedance-based cell analyzer as discussed in Example 5. Where indicated FGF2 and Compound H were supplemented to the media at concentrations of 100 ng/ml, and 1 uM, respectively. The Compound of Formula (I) was used at 500 nM in (A) and 100 nM (B).
(§2) For CellTiter-Glo™ assays, cells were dispensed into tissue culture treated 96-well plates (Costar, catalog number 3904) with a final volume of 80 μL of medium and at density of 3000 cells per well. 12 to 24 hrs after plating, 20 μL of each compound dilution series were transferred to plates containing the cells, resulting in compound concentration ranges of 2700 nM to 3.7 nM by 3-fold dilutions and a final DMSO concentration of 0.16%. The total volume in each well was […]. Plates were incubated for 72 hrs and the effects of compounds on cell proliferation was determined using the CellTiter-Glo™ Luminescent Cell Viability Assay (CTG, Promega) and a Victor™ X4 plate reader (Perkin Elmer). For real-time growth assays cells were seeded into xCELLigence E-plates (Roche catalogue number 05232368001) at a density of 4000 cells per well in a total of 90 μl of media and 24 hrs after plating, 11 μl of media with or without compound was added to the wells. 2-4 replicate wells were plated for all cell lines and treatment groups with the exception of LGX818+FGF2 treated COLO 741 cells (N=1). Where indicated final concentrations of compounds and growth factor were 1 uM for Compound H, 100 ng/ml for FGF2, and either 100 nM (SK-MEL-5) or 500 nM (COLO 741) for the Compound of Formula (I). Cells were continuously monitored every two hours for seven days with the xCELLigence real-time impedance based cell analyzer. Impedance was measured using the electrodes on the E-plates, with increasing surface area coverage of cells creating greater electrode impedance. […] In all cases cell index values were normalized to a timepoint immediately following the addition of compound.
(§3) To determine whether rescue of BRAFV600E melanoma cell lines by FGF2 was dependent on FGFR signaling, we examined whether the selective FGFR inhibitor Compound H could prevent FGF2-mediated rescue. Two cell lines which were rescued to varying degrees by FGF2 (COLO 741, and SK-MEL-5, Table 8-1) were cultured in media containing the Compound of Formula (I) and FGF2 either in the presence or absence of Compound H and growth measured in real time.

For a further series, the system named is SK-MEL-5. Put plainly: xCELLigence real-time impedance growth assay. It counts as cell-based. To be noted: SK-MEL-5, absence of FGF2; Formula (I) 100 nM, Compound H 1 uM. On the procedure:
as §1, §2, §3

The subject of series [3] is MAPK and PIK3C signaling in COLO 741 cells. As to the kind of experiment: Western analysis of phosphorylated MEK1/2, ERK1/2 and AKT. To be noted: COLO 741, 2 and 24 hours, no FGF2; Formula (I) 100 nM, Compound H 1.0 uM. In kind it is cell-based. The procedure:
(§4) FIG. 4—The effect on signaling of combining the Compound of Formula (I) with the FGFR inhibitor Compound H and the FGFR ligand FGF2 in two BRAFV600E mutant melanoma-derived cell lines in vitro. Shown is western analysis of both phosphorylated and total AKT, ERK1/2, and MEK1/2 proteins isolated from (A) […] and (B) SK-MEL-5 cells following treatment with the Compound of Formula (I) (100 nM), FGF2 (100 ng/ml), and Compound H (1 uM). Cells were treated for 2 and 24 hours with agents singly and in combination as discussed in Example 5.
(§5) For Western analysis, cells were plated in 6-well (Costar, catalog number 3506) plates at a density of 5×10^5 cells per well in 2.0 ml of complete culture medium. Twelve to 24 hrs after plating, cells were treated with the various compounds, and in all experiments the Compound of Formula (I), Compound H, and FGF2 were used at final concentrations of 100 nM, 1.0 uM, and 100 ng/ml, respectively. Cells were harvested 2, and 24 hrs following the addition of compound in freshly prepared cell lysis buffer (Cell Signaling Technology Catalog number 9803); supplemented with both phosphatase (PhosStop, Roche Catalog number 04906845001) and protease inhibitors (Roche, catalog number 11697498001). Proteins from cell lysates were separated by electrophoresis though a NuPAGE 4-12% Bis-Tis midi gel (Novex, catalog number WG1402BX10), transferred to nitrocellulose membranes, which were subsequently incubated with antibodies from Cell Signaling Technology (Danvers, Mass., USA) recognizing p-AKT (S473, Catalog number 4058), total AKT (Catalog number 2920), p-ERK1/2 (T202/Y204, catalog number 9101), total ERK1/2 (catalog number 9107), p-MEK1/2 (S217/221, catalog number 9121) and β-actin (Ambion, catalog number AM4302). Western blots were visualized following incubation with IRDye 680RD Goat anti-Rabbit IgG (Li-Cor, Catalog number 926-68071) and IRDye 800 CW Goat anti-Mouse IgG (Li-Cor, Catalog number 926-32210) and scanning with an Odyssey Infrared Imager System (Li-Cor, Lincoln, Nebr., USA).
(§6) To investigate whether either restored MAPK or activated PIK3C signaling might underlie FGF2-mediated rescue the effects of FGF2 on MAPK and PIK3C signaling were examined via western-blot analysis of phosphorylated MEK1/2 (MAP2K1/2), ERK1/2 (MAPK1/2) and AKT1/2/3.

Series [4] deals with MAPK and PIK3C signaling in SK-MEL-5 cells. Described as above. In kind it is cell-based. To be noted: SK-MEL-5, 2 and 24 hours, no FGF2; Formula (I) 100 nM, Compound H 1.0 uM. On the procedure:
as §4, §5, §6

The text below walks through data of US10548894B2, “Combination therapy” (Array BioPharma Inc., priority 2013, dated 2020).

Take `CN(C)C(=O)c1cc2cnc(Nc3ccc(N4CCNCC4)cn3)nc2n1C1CCCC1` [Compound C]: in series [1], the “Mean change of body weight” value is on record as 5.3 ± 1.4 % ± SEM, the “Mean change of tumor volume” value is listed as 86 ± 26 mm3 ± SEM, the “Mean change of tumor volume vs control (T/C)” value is 4% and the “Survival (Survivors/Total)” value is reported as 10/10. In series [2] (currently tested at the 900 mg QD dose level), the “maximum tolerated dose (MTD)” value is “has not been achieved”.

Take `Nc1cc(C(F)(F)F)c(-c2cc(N3CCOCC3)nc(N3CCOCC3)n2)cn1` [Compound F, 5-(2,6-di-morpholin-4-yl-pyrimidin-4-yl)-4-trifluoromethyl-pyridin-2-ylamine]: the MTD in series [2] stood at 100 mg.

As to `CCN1CCN(c2ccc(Nc3cc(N(C)C(=O)Nc4c(Cl)c(OC)cc(OC)c4Cl)ncn3)cc2)CC1` [Compound H], the “growth in real time (cell index)” value with COLO 741 and in the series with SK-MEL-5 was “did not affect the proliferation” throughout. Further, the “MAPK signaling (phosphorylated MEK and ERK levels)” value in series [3] and in series [4] was “neither FGF2 nor Compound H when added as single agents affected signaling” each time. In series [2], the MTD is 125 mg.
